Source: US20020137929A1, “1 - (3-heterocyclylphenyl) isothiourea, -isourea, -guanidine and -amidine herbicidal agents” (Intellectual Property Department, BASF Aktiengesellschaft, priority 1998, published 2002)

What was measured:
SETVI (Foxtail, Green) = assay: Preemergence herbicidal evaluation; type: in vivo, Setaria viridis; details: rated 4-5 weeks after treatment
How it was run: (§1)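 Visual 0-9 rating vs control (stand, vigor, malformation, size, chlorosis, overall appearance), scored 4-5 wk after spraying. Seeded soil cups were treated preemergence with compound in aqueous acetone, ~0.0156-0.500 kg/ha equivalent.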

CYPSE (Flatsedge) = assay: Preemergence weed control under flooded paddy conditions; type: in vivo, Cyperus serotinus; details: rated 3-4 weeks after treatment
How it was run: (§2)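 First, seeds or propagules go into the top 0.5 cm of silt loam; next, water is held 1.5 to 3 cm over the soil; then compound (50/50 acetone/water) is pipetted into it at about 0.0313 to 0.500 kg/ha; finally plants are rated visually 0-9 after three to four weeks.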

AMBEL (Ragweed, Common) = assay: Postemergence herbicidal evaluation; type: in vivo, Ambrosia artemisifolia; details: postemergence
How it was run: (§3)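 ~2-wk seedlings; postemergence spray, 40 psi; vehicle 1:1 acetone:water + 0.5% Tween 20; rate ≈0.0156–0.500 kg/ha; greenhouse hold; scored 4–5 wk after treatment, 0–9 scale vs control; repeat tests averaged.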

[1] = tested on: GLXMAW (Soybean, Williams); assay: Postemergence herbicidal evaluation; type: in vivo, Glycine max, (L.) Merr. cv Williams; details: postemergence
How it was run: as §3

MOOVA (Monochoria) = assay: Preemergence weed control under flooded paddy conditions; type: in vivo, Monochoria vaginalis; details: rated 3-4 weeks after treatment
How it was run: as §2

GALAP (Galium) [2] = assay: Preemergence herbicidal evaluation; type: in vivo, Galium aparine; details: rated 4-5 weeks after treatment
How it was run: as §1

ORYSAT (Rice, Tebonnet) = assay: Preemergence herbicidal evaluation; type: in vivo, Oryza sativa, (L.) Tebonnet; details: rated 4-5 weeks after treatment
How it was run: as §1

CASOB (Sicklepod) = assay: Postemergence herbicidal evaluation; type: in vivo, Cassia obtusifolia; details: postemergence
How it was run: as §3

[3] = tested on: SAGPY (Arrowhead (Pygmaea)); assay: Preemergence weed control under flooded paddy conditions; type: in vivo, Sagittaria pygmaea; details: rated 3-4 weeks after treatment
How it was run: as §2

GALAP (Galium) [4] = assay: Postemergence herbicidal evaluation; type: in vivo, Galium aparine; details: postemergence
How it was run: as §3

[5] = tested on: ECHORC (Watergrass (Calif.)); assay: Preemergence weed control under flooded paddy conditions; type: in vivo, Echinochloa oryzoides; details: rated 3-4 weeks after treatment
How it was run: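 Herbicidal effect is scored visually on a 0-9 scale against an untreated control, three to four weeks after compounds are pipetted into the flood water (1.5 to 3 cm deep) over seeds planted in silt loam at 0.5 cm depth. Rates: about 0.0313 to 0.500 kg/ha.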

[6] = tested on: TRZAWR (Wheat, Winter, cv Riband); assay: Postemergence herbicidal evaluation; type: in vivo, Triticum aestivum; details: postemergence
How it was run: as §3

CN1C(=O)C(CC(=O)NO)SC1=Nc1cc(-n2c(=O)cc(C(F)(F)F)n(C)c2=O)c(F)cc1Cl (centres unmarked) [Compound 162, 2-{{2-Chloro-5-[3,6-dihydro-3-methyl-2,6-dioxo-4-(trifluoromethyl)-1(2H)-pyrimidinyl]-4-fluorophenyl}imino}-3-methyl-4-oxo-5-thiazolidineacetohydroxamic acid]
5.0: Preemergence herbicidal rating ORYSAT (ORYSAT (Rice, Tebonnet); 0.0625 kg/ha)
7.0: herbicidal effect rating, MOOVA (MOOVA (Monochoria); 0.0313 kg/ha) | herbicidal effect rating, MOOVA (MOOVA (Monochoria); 0.0625 kg/ha) | herbicidal effect rating, MOOVA (MOOVA (Monochoria); 0.1250 kg/ha) | herbicidal effect rating, ECHORC ([5]; 0.0625 kg/ha)
3.5: herbicidal rating TRZAWR ([6]; rate 0.0156 kg/ha) | herbicidal rating TRZAWR ([6]; rate 0.0313 kg/ha) | herbicidal rating TRZAWR ([6]; rate 0.0625 kg/ha)
6.5: herbicidal rating GLXMAW ([1]; rate 0.0313 kg/ha)
8.5: herbicidal rating GLXMAW ([1]; rate 0.0625 kg/ha)
9.0: Preemergence herbicidal rating SETVI (SETVI (Foxtail, Green); 0.0156 kg/ha) | Preemergence herbicidal rating SETVI (SETVI (Foxtail, Green); 0.0313 kg/ha) | Preemergence herbicidal rating SETVI (SETVI (Foxtail, Green); 0.0625 kg/ha) | Preemergence herbicidal rating SETVI (SETVI (Foxtail, Green); 0.1250 kg/ha) | Preemergence herbicidal rating SETVI (SETVI (Foxtail, Green); 0.2500 kg/ha) | herbicidal effect rating, CYPSE (CYPSE (Flatsedge); 0.1250 kg/ha) | herbicidal effect rating, CYPSE (CYPSE (Flatsedge); 0.2500 kg/ha) | herbicidal rating AMBEL (AMBEL (Ragweed, Common); rate 0.0156 kg/ha) | herbicidal rating AMBEL (AMBEL (Ragweed, Common); rate 0.0313 kg/ha) | herbicidal rating AMBEL (AMBEL (Ragweed, Common); rate 0.0625 kg/ha) | herbicidal effect rating, MOOVA (MOOVA (Monochoria); 0.2500 kg/ha)
3.0: Preemergence herbicidal rating GALAP (GALAP (Galium) [2]; 0.1250 kg/ha) | Preemergence herbicidal rating GALAP (GALAP (Galium) [2]; 0.2500 kg/ha) | Preemergence herbicidal rating ORYSAT (ORYSAT (Rice, Tebonnet); 0.0313 kg/ha) | herbicidal effect rating, SAGPY ([3]; 0.0625 kg/ha) | herbicidal effect rating, SAGPY ([3]; 0.1250 kg/ha) | herbicidal effect rating, SAGPY ([3]; 0.2500 kg/ha) | herbicidal rating GALAP (GALAP (Galium) [4]; rate 0.0313 kg/ha)
6.0: herbicidal rating GLXMAW ([1]; rate 0.0156 kg/ha) | Preemergence herbicidal rating ORYSAT (ORYSAT (Rice, Tebonnet); 0.1250 kg/ha) | herbicidal rating GALAP (GALAP (Galium) [4]; rate 0.0625 kg/ha) | herbicidal effect rating, ECHORC ([5]; 0.0313 kg/ha)
2.0: Preemergence herbicidal rating ORYSAT (ORYSAT (Rice, Tebonnet); 0.0156 kg/ha) | herbicidal rating CASOB (CASOB (Sicklepod); rate 0.0625 kg/ha)
8.0: Preemergence herbicidal rating ORYSAT (ORYSAT (Rice, Tebonnet); 0.2500 kg/ha) | herbicidal effect rating, ECHORC ([5]; 0.1250 kg/ha) | herbicidal effect rating, ECHORC ([5]; 0.2500 kg/ha)
0.0: Preemergence herbicidal rating GALAP (GALAP (Galium) [2]; 0.0156 kg/ha) | Preemergence herbicidal rating GALAP (GALAP (Galium) [2]; 0.0313 kg/ha) | Preemergence herbicidal rating GALAP (GALAP (Galium) [2]; 0.0625 kg/ha) | herbicidal rating CASOB (CASOB (Sicklepod); rate 0.0156 kg/ha) | herbicidal rating CASOB (CASOB (Sicklepod); rate 0.0313 kg/ha) | herbicidal effect rating, SAGPY ([3]; 0.0313 kg/ha) | herbicidal rating GALAP (GALAP (Galium) [4]; rate 0.0156 kg/ha)
